# Source: patent publication US8518931B2, “Compounds and compositions as kinase inhibitors” (IRM LLC, priority 2008, dated 2013)
# Molecular target: T1, NPM-ALK (Homo sapiens, UniProt Q9UM73)
# T1 construct: nucleophosmin (NPM, NPM1; human P06748) fusion partner; expressed in transfected cells; host or cells: murine BaF3 cells (DSMZ), transfected with pCIneo (Promega) coding for NPM-ALK and selected with G418; the other entry of the earlier key: Npm1 (Q61937, Nucleophosmin)
# Assay: NPM-ALK BaF3 assay (growth inhibition of BaF3-NPM-ALK cells)
# Format: cell-based
# Conditions: human NPM-ALK overexpressing murine BaF3 cells
# Excerpt: The expression of NPM-ALK may be achieved by transfecting the BaF3 cell line with an expression vector pClneo™ (Promega Corp., Madison Wis., USA) coding for NPM-ALK and subsequent selection of G418 resistant cells. Non-transfected BaF3 cells depend on IL-3 for cell survival. In contrast, NPM-ALK expressing BaF3 cells (named BaF3-NPM-ALK hereinafter) can proliferate in the absence of IL-3 because they obtain proliferative signal through NPM-ALK kinase. Putative inhibitors of the NPM-ALK kinase therefore abolish the growth signal and may result in antiproliferative activity. The antiproliferative activity of putative inhibitors of the NPM-ALK kinase can however be overcome by addition of IL-3, which provides growth signals through an NPM-ALK independent mechanism. An analogous cell system using FLT3 kinase has also been described (see, E Weisberg et al. Cancer Cell; 1, 433-443 (2002)).
# The inhibitory activity of the compounds of the invention may be determined as follows. In general, BaF3-NPM-ALK cells (15,000/microtitre plate well) are transferred to 96-well microtitre plates. Test compounds dissolved in dimethyl sulfoxide (DMSO) are added in a series of concentrations (dilution series) in such a manner that the final concentration of DMSO is not greater than 1% (v/v). After the addition, the plates are incubated for two days during which the control cultures without test compound are able to undergo two cell-division cycles. The growth of the BaF3-NPM-ALK cells is measured by means of YOPRO™ staining [T Idziorek et al. J. Immunol. Methods; 185: 249-258 (1995)]: 25 μl of lysis buffer comprising 20 mM sodium citrate, pH 4.0, 26.8 mM sodium chloride, 0.4% NP40, 20 mM EDTA and […] to each well. Cell lysis is completed within 60 min at room temperature and total amount of YOPRO™ bound to DNA is determined by measurement using the Cytofluor II 96-well reader (PerSeptive Biosystems) with the following settings: Excitation (nm) 485/20 and Emission (nm) 530/25.
# IC50 values may be determined by a computer-aided system using the formula: IC50=[(ABStest−ABSstart)/(ABScontrol−ABSstart)]×100·(ABS=absorption)
# In general, compounds of the invention have IC50 values from 1 nM to 10 μM. In some examples, compounds of the invention have IC50 values from 0.01 μM to 5 μM. In other examples, compounds of the invention have IC50 values from 0.01 μM to 1 μM, or more particularly from 1 nM to 1 μM.
# Table 1 describes representative compounds of the invention, prepared following the procedures described above. IC50 values are as measured in an NPM-ALK BaF3 assay.
# T1 sequence (Q9UM73 with tags, fused parts or gaps): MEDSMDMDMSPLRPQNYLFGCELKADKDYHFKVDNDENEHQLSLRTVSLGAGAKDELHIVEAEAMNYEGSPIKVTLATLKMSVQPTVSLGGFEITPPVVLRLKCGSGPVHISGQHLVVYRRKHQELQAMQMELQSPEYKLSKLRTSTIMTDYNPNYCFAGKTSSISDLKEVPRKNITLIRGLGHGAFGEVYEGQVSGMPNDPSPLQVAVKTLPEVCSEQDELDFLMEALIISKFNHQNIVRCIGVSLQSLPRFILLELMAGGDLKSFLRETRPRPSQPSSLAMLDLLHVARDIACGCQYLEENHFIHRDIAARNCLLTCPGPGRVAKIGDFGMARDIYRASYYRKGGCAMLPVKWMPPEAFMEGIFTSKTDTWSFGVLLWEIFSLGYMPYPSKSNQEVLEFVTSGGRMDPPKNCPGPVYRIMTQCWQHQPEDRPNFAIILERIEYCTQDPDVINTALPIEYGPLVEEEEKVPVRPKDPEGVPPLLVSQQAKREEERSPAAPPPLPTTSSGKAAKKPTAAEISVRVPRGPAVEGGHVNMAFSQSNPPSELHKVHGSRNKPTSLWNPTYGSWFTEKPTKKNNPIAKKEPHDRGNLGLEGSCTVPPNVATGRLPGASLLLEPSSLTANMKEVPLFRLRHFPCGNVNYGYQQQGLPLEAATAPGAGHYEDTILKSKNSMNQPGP
row,IC50 [nM],SMILES
1,130,CC(C)S(=O)(=O)c1ccccc1Nc1nc(Nc2ccc(C3CCN(CCC(N)=O)CC3)cc2)nc2ccnn12 [Ex 92]
2,132,CC(C)S(=O)(=O)c1ccccc1Nc1nc(Nc2ccc(C3CCN(C(=O)CN4CCC4)CC3)cc2)nc2ccnn12 [Ex 93]
3,16,COC[C@H](N)C(=O)N1CCC(c2cc(OC)c(Nc3nc(Nc4ccccc4S(=O)(=O)C(C)C)n4nccc4n3)cc2C)CC1 [Ex 94]
4,22,COc1cc(C2CCN(C(=O)[C@H](C)N(C)CCO)CC2)c(C)cc1Nc1nc(Nc2ccccc2S(=O)(=O)C(C)C)n2nccc2n1 [Ex 95]
5,32,COc1cc(C2CCN(C(=O)[C@@H](C)N3CCCC3)CC2)c(C)cc1Nc1nc(Nc2ccccc2S(=O)(=O)C(C)C)n2nccc2n1 [Ex 96]
6,32,COc1cc(C2CCN(C(=O)[C@@H](C)NCCO)CC2)c(C)cc1Nc1nc(Nc2ccccc2S(=O)(=O)C(C)C)n2nccc2n1 [Ex 97]
7,13,COc1cc(C2CCN(C(=O)[C@@H](C)N(C)CCO)CC2)c(C)cc1Nc1nc(Nc2ccccc2S(=O)(=O)C(C)C)n2nccc2n1 [Ex 98]
8,35,CCN(CC)CCC(=O)N1CCC(c2cc(OC)c(Nc3nc(Nc4ccccc4S(=O)(=O)C(C)C)n4nccc4n3)cc2C)CC1 [Ex 99]
9,33,COc1cc(C2CCN(C(=O)CCCN3CCCC3)CC2)c(C)cc1Nc1nc(Nc2ccccc2S(=O)(=O)C(C)C)n2nccc2n1 [Ex 100]
10,31,COc1cc(C2CCN(C(=O)CCCN3CCOCC3)CC2)c(C)cc1Nc1nc(Nc2ccccc2S(=O)(=O)C(C)C)n2nccc2n1 [Ex 101]
11,49,CCCN(CCC)CC(=O)N1CCC(c2cc(OC)c(Nc3nc(Nc4ccccc4S(=O)(=O)C(C)C)n4nccc4n3)cc2C)CC1 [Ex 102]
12,16,CCCNCC(=O)N1CCC(c2cc(OC)c(Nc3nc(Nc4ccccc4S(=O)(=O)C(C)C)n4nccc4n3)cc2C)CC1 [Ex 103]
13,49,COc1cc(C2CCN(C(=O)CCN3CCCC3)CC2)c(C)cc1Nc1nc(Nc2ccccc2S(=O)(=O)C(C)C)n2nccc2n1 [Ex 104]
14,15,CCNCC(=O)N1CCC(c2cc(OC)c(Nc3nc(Nc4ccccc4S(=O)(=O)C(C)C)n4nccc4n3)cc2C)CC1 [Ex 105]
15,16,COc1cc(C2CCN(C(=O)C(C)(CO)CO)CC2)c(C)cc1Nc1nc(Nc2ccccc2S(=O)(=O)C(C)C)n2nccc2n1 [Ex 106]
16,16,CCN(CC)CC(=O)N1CCC(c2cc(OC)c(Nc3nc(Nc4ccccc4S(=O)(=O)C(C)C)n4nccc4n3)cc2C)CC1 [Ex 110]
